{"source": "patent US20250090502A1", "about": "“METHODS OF TREATING, AMELIORATING, AND/OR PREVENTING BACTERIAL INFECTION, OR METHODS OF REDUCING ADVERSE EFFECTS CAUSED BY BACTERIA” (Drexel University, priority 2023, published 2025)", "key": {"[1]": {"test_system": "P. aeruginosa", "assay": "Pyocyanin toxin production by P. aeruginosa cultures", "format": "cell-based", "settings": "P. aeruginosa culture, single agent", "excerpt": "FIG. 4 illustrates certain aspects of the effect of HEJ14 on pyocyanin toxin production by the Gram-negative bacteria P. aeruginosa, in accordance with some embodiments. […] The bar chart illustrates the effect of HEJ14 on pyocyanin by P. aeruginosa at various HEJ14 concentrations.\nUnexpectedly, the present study discovered that some of the hit compounds, as single agents, inhibited pyocyanin toxin production (FIG. 4) in the Gram-negative pathogen P. aeruginosa at higher specific activities (nanomolar) than required for RelA inhibition. Thus, the present study pursued a bipartite strategy of developing the compounds to treat biofilms, and to “convert” pathogens to commensals."}, "[2]": {"test_system": "Haemophilus influenzae", "assay": "Susceptibility of planktonic and biofilm H. influenzae strains to kanamycin alone and in combination with HEJ14", "format": "cell-based", "excerpt": "FIG. 3A: transformation frequency of wild type (Rd) Haemophilus influenzae versus ΔRelA Rd; FIG. 3B: transformation frequency of Rd versus ΔRelA/ΔSpot Rd; FIG. 3C: planktonic treatments: no treatment (left); kanamycin treatment (middle); HEJ14+kanamycin treatment (right). Left=WT Rd; middle=ΔRelA Rd and right=ΔRelA/ΔSpot Rd. FIG. 3D: biofilm treatments: no treatment (left); kanamycin treatment (middle); HEJ14+kanamycin treatment (right). Left=WT Rd; middle=ΔRelA Rd and right=ΔRelA/ΔSpot Rd.\nTo study the effects of HEJ14, including the risk of resistance mutations arising, the present study constructed single gene knockouts of RelA, SpoT, and MsfI (a gene that provides for survival in phagolysosomes) as well as a double RelA/SpoT knockout in the Gram-negative bacteria Haemophilus influenzae using an overlap PCR mutagenesis strategy.\nThe present study then evaluated the susceptibility of both planktonic (FIG. 3C) and biofilm cells (FIG. 3D) of WT, ΔRelA and the ΔRelA/ΔSpot H. influenzae strains to kanamycin (kan) alone and in combination with HEJ14. In all cases there was a 2-3 log increase in killing by the combo treatment confirming our initial premise that RelA inhibition would potentiate standard antibiotics."}, "[3]": {"test_system": "P. aeruginosa", "assay": "Wax worm model: larvae injected with supernatant of P. aeruginosa cultures grown with HEJ14", "format": "in vivo", "settings": "larvae injected with supernatant of cultures treated with HEJ14 during growth vs untreated culture supernatants", "protocol": "(§1) FIG. 5A: HEJ14 reduced toxin production of P. aeruginosa. The label “DMSO 48 h” above the dish indicate that the larvae were injected with supernatant of P. aeruginosa culture grown with DMSO carrier only. […] Kaplan Meier Plot showing increased survival of wax worms receiving supernatant from HEJ14 treated P. aeruginosa culture. FIG. 5B: HEJ14 protected wax worm larvae from the lethality caused by P. aeruginosa infection. In FIG. 5B, larvae were injected with either live P. aeruginosa (10^5 CFU) and HEJ14, or the live bacteria and DMSO carrier only. Right dish: Larvae were injected with live P. aeruginosa (10^5 CFU) & 50 μM HEJ14. The Kaplan Meier Plot showing increased survival of wax worms receiving HEJ14 treated P. aeruginosa.\n(§2) Similarly, HEJ14 protected the larvae for 48 hours when live P. aeruginosa were injected simultaneously with a single bolus of HEJ14 (FIG. 5B)."}, "[4]": {"test_system": "Escherichia coli C", "assay": "E. coli C aggregation under stress conditions", "format": "cell-based", "settings": "high salt, low temperature and amino acid starvation", "excerpt": "Bottom panels: Micrographs of the aggregates (or the lack thereof in the case of HEJ14 treated sample).\nE. coli C, when under certain stress conditions, aggregates together and forms highly robust biofilms from a planktonic culture. It was hypothesized that inhibition of RelA would limit aggregation of E. coli C."}, "[5]": {"test_system": "S. aureus", "assay": "Hemolytic activity of S. aureus culture supernatants on sheep's blood agar", "format": "cell-based, Staphylococcus aureus", "settings": "S. aureus cultures incubated with HEJ14 (125 μM) for 24 hrs vs vehicle", "protocol": "S. aureus broth cultures were incubated with vehicle or HEJ14 (125 μM) for 24 hrs. The supernatants were filter sterilized (0.2 μm) and 5 μL plated in serial dilutions on 5% sheep's blood agar, starting with V1 (vehicle treated plate) and R1 (HEJ14 treated plate)."}, "[6]": {"test_system": "agr", "assay": "S. aureus agr-GFP reporter expression", "format": "cell-based, Staphylococcus aureus", "settings": "stationary phase; HEJ14 125, 250, 500 μM", "protocol": "(§3) Cultures of a S. aureus expressing an agr-GFP reporter were incubated with vehicle (0 μM) or various concentrations of HEJ14 ([…], 250 μM, and 500 μM). The bacterial growth (OD600) and GFP signal intensity (RFU) were measured for a duration of 24 hours at 20-minute intervals. FIG. 6A: Bacterial growth (OD600).\nFIG. 6B: agr expression as measured by GFP signal intensity (RFU) normalized to OD600.\nSince the stringent response in S. aureus induces PSMα production and agr activity is essential for psm expression, the present study used an S. aureus agr reporter strain to elucidate the effect of RelA inhibition on agr expression."}, "[7]": {"test_system": "methicillin-resistant S. aureus (MRSA) (strain USA300 LAC::lux)", "assay": "Mouse model of S. aureus intradermal infection (MRSA USA300 LAC::lux)", "format": "in vivo, mice", "settings": "single dose of 125 μM or 250 μM HEJ14 at time of infection, day 3, vs vehicle, dose-dependent", "protocol": "The dorsal skin surfaces of anesthetized mice were shaved; a 100 μL volume of 3×10^7 CFU of methicillin-resistant S. aureus (MRSA) (strain USA300 LAC::lux) was injected intradermally with, from left to right, vehicle, 125 μM of HEJ14, or 250 μM of HEJ14. FIG. 8A: Digital photographs of dorsal lesions. FIG. 8B: Digital bioluminescent signals of S. aureus. FIG. 8C: images from FIG. 8A were analyzed using Image J to obtain total lesion areas. FIG. 8D Images from FIG. 8B were analyzed by Image J to determine bacterial burden based on photon count.\nTo investigate the efficacy of a RelA inhibitor against in vivo bacterial infections, the present study employed an established mouse model of S. aureus intradermal infection with the community-associated methicillin-resistant S. aureus infections (CA-MRSA) bioluminescent strain USA300 LAC::lux (Marchitto et al., Proc Natl Acad Sci USA 2019; 116:10917-26; Alphonse et al., Sci Transl Med 2021; 13.; Wang et al., Nat Med 2007; 13:1510-4.; Dong et al., Immunity 2022; 55:1645-62.e7)."}, "[8]": {"test_system": "Staphylococcus aureus", "assay": "S. aureus in vitro growth kinetics (OD600)", "format": "cell-based", "settings": "stationary phase; HEJ14 125-500 μM, 24 hours", "protocol": "as §3\nThe present study further discovered that the bacterial anti-virulence effects of HEJ14 works on the Gram-positive pathogens, as well. To determine if HEJ14 has an effect on the Gram-positive bacteria Staphylococcus aureus, the present study performed in vitro growth kinetics assays testing various HEJ14 concentrations and measuring OD600 over time."}, "[9]": {"test_system": "P. aeruginosa", "assay": "Wax worm model: larvae injected with live P. aeruginosa and HEJ14", "format": "in vivo", "settings": "48 hours post-injection; live P. aeruginosa (10^5 CFU) injected simultaneously with single bolus of 50 μM HEJ14", "protocol": "as §1, §2"}}, "note": "Entries after “also recorded” stand apart in the source; their conditions may differ.", "data": [{"molecule": "O=C(O)Cn1cc(C[C@H]2NC(=O)NC2=O)nn1", "note": "[HEJ14, (R)-2-(4-((2,5-dioxoimidazolidin-4-yl)methyl)-1H-1,2,3-triazol-1-yl)acetic acid]", "values": [{"measurement": "pyocyanin toxin production", "setting": "[1]", "result": "decreased pyocyanin production"}, {"measurement": "increase in killing by the combo treatment", "setting": "[2]; HEJ14 in combination with kanamycin vs kanamycin alone, planktonic and biofilm cells of WT, ΔRelA and ΔRelA/ΔSpot H. influenzae", "result": "2-3 log"}, {"measurement": "planktonic and biofilm H. influenzae growth", "setting": "[2]; even in ΔRelA strains", "result": "able to inhibit planktonic and biofilm H. influenzae growth"}, {"measurement": "P. aeruginosa virulence in the wax worm model", "setting": "[3]", "result": "significantly reduced P. aeruginosa virulence"}, {"measurement": "E. coli C aggregation", "setting": "[4]", "result": "completely absent; also recorded: reduced the amount of E. coli C aggregation"}, {"measurement": "hemolytic effect of culture supernatants on blood agar plates", "setting": "[5]", "result": "reduced hemolytic effect"}, {"measurement": "agr expression (GFP signal normalized to OD600)", "setting": "[6]", "result": "dose-dependent decrease in agr expression"}, {"measurement": "bioluminescence (in vivo bacterial burden)", "setting": "[7]", "result": "significantly decreased"}, {"measurement": "lesion size", "setting": "[7]", "result": "significantly decreased"}, {"measurement": "bacterial growth (OD600)", "setting": "[8]", "result": "enhanced bacterial growth during the stationary phase"}, {"measurement": "larvae survived", "setting": "[9]", "result": 95, "unit": "%"}]}]}
